# From US11931424B2, “Combination MCL-1 inhibitors with anti-body drug conjugates” (Gilead Sciences, Inc., priority 2021, dated 2024)
# Tested on: panel of breast cancer cell lines
# Assay: Compound A with targeted agents and chemotherapies, 72-hour in vitro proliferation assays
# Format: cell-based
# Details: 72-hour proliferation
# [1] = AU565 cell line, compound A × partner
# [2] = BT-20 cell line, compound A × partner
# [3] = CAL-51 cell line, compound A × partner
# [4] = CAL-85-1 cell line, compound A × partner
# [5] = CAL-120 cell line, compound A × partner
# [6] = CAL-148 cell line, compound A × partner
# [7] = CAMA-1 cell line, compound A × partner
# [8] = DU-4475 cell line, compound A × partner
# [9] = EVSA-T cell line, compound A × partner
smiles,measurement,setting,value
CN(C)C(=O)c1cc2cnc(Nc3ccc(N4CCNCC4)cn3)nc2n1C1CCCC1 [LEE011],Best CI,[1],1.01
same,Bliss Volume,[1],−1.41
same,HSA volume,[1],−6.50
same,Loewe Volume,[1],−4.57
same,Synergy Score,[1],1.58
same,Best CI,[2],0.78
same,Bliss Volume,[2],−2.26
same,HSA volume,[2],−1.79
same,Loewe Volume,[2],−2.17
same,Synergy Score,[2],2.30
same,Best CI,[3],0.77
same,Bliss Volume,[3],−1.68
same,HSA volume,[3],−1.56
same,Loewe Volume,[3],−1.27
same,Synergy Score,[3],0.34
same,Best CI,[4],0.64
same,Bliss Volume,[4],−5.58
same,HSA volume,[4],−9.15
same,Loewe Volume,[4],−7.95
same,Synergy Score,[4],0.23
same,Best CI,[5],0.62
same,Bliss Volume,[5],−1.14
same,HSA volume,[5],−5.68
same,Loewe Volume,[5],−5.28
same,Synergy Score,[5],0.15
same,Best CI,[6],0.86
same,Bliss Volume,[6],−4.27
same,HSA volume,[6],−5.99
same,Loewe Volume,[6],−4.10
same,Synergy Score,[6],0.81
same,Best CI,[7],0.73
same,Bliss Volume,[7],−3.85
same,Loewe Volume,[7],−6.51
same,Synergy Score,[7],1.09
same,Best CI,[8],0.47
same,Bliss Volume,[8],1.64
same,HSA volume,[8],0.20
same,Loewe Volume,[8],1.04
same,Synergy Score,[8],0.98
same,Best CI,[9],0.63
same,Bliss Volume,[9],−0.43
same,HSA volume,[9],−2.18
same,Synergy Score,[9],0.34
same,Best CI,"HCC38, compound A × partner",0.44
same,Bliss Volume,"HCC38, compound A × partner",−4.85
same,HSA volume,"HCC38, compound A × partner",−8.61
same,Loewe Volume,"HCC38, compound A × partner",−9.77
same,Synergy Score,"HCC38, compound A × partner",1.12
same,Best CI,"HCC70, compound A × partner",0.93
same,Bliss Volume,"HCC70, compound A × partner",−0.15
same,HSA volume,"HCC70, compound A × partner",0.16
same,Loewe Volume,"HCC70, compound A × partner",0.49
same,Synergy Score,"HCC70, compound A × partner",6.12
same,Bliss Volume,"HCC1143, compound A × partner",−3.25
same,HSA volume,"HCC1143, compound A × partner",−7.75
same,Loewe Volume,"HCC1143, compound A × partner",−9.95
same,Synergy Score,"HCC1143, compound A × partner",1.30
same,Best CI,"HCC1569, compound A × partner",0.47
same,Bliss Volume,"HCC1569, compound A × partner",5.70
same,HSA volume,"HCC1569, compound A × partner",1.89
same,Loewe Volume,"HCC1569, compound A × partner",5.08
same,Synergy Score,"HCC1569, compound A × partner",3.87
same,Best CI,"HCC1806, compound A × partner",0.56
same,Bliss Volume,"HCC1806, compound A × partner",−3.98
same,HSA volume,"HCC1806, compound A × partner",−8.72
same,Loewe Volume,"HCC1806, compound A × partner",−4.05
same,Synergy Score,"HCC1806, compound A × partner",0.65
same,Best CI,"HCC1937, compound A × partner",0.74
same,Bliss Volume,"HCC1937, compound A × partner",2.31
same,HSA volume,"HCC1937, compound A × partner",−2.66
same,Loewe Volume,"HCC1937, compound A × partner",1.04
same,Synergy Score,"HCC1937, compound A × partner",2.13
same,Best CI,"HCC1954, compound A × partner",0.72
same,Bliss Volume,"HCC1954, compound A × partner",−0.75
same,Loewe Volume,"HCC1954, compound A × partner",−1.17
same,Synergy Score,"HCC1954, compound A × partner",4.48
same,Best CI,"HCC2218, compound A × partner",0.73
same,Bliss Volume,"HCC2218, compound A × partner",−5.40
same,HSA volume,"HCC2218, compound A × partner",−4.99
same,Loewe Volume,"HCC2218, compound A × partner",−5.90
same,Synergy Score,"HCC2218, compound A × partner",1.69
same,Best CI,"HDQ-P1, compound A × partner",0.04
same,Bliss Volume,"HDQ-P1, compound A × partner",−2.80
same,HSA volume,"HDQ-P1, compound A × partner",−6.22
same,Loewe Volume,"HDQ-P1, compound A × partner",−9.02
same,Synergy Score,"HDQ-P1, compound A × partner",0.15
same,Best CI,"HMC-1-8, compound A × partner",0.81
same,Bliss Volume,"HMC-1-8, compound A × partner",9.82
same,HSA volume,"HMC-1-8, compound A × partner",5.13
same,Loewe Volume,"HMC-1-8, compound A × partner",5.78
same,Synergy Score,"HMC-1-8, compound A × partner",9.01
same,Best CI,"JIMT-1, compound A × partner",0.00
same,Bliss Volume,"JIMT-1, compound A × partner",0.29
same,HSA volume,"JIMT-1, compound A × partner",−2.46
same,Loewe Volume,"JIMT-1, compound A × partner",−4.06
same,Synergy Score,"JIMT-1, compound A × partner",0.28
same,Best CI,"KPL-1, compound A × partner",0.65
same,Bliss Volume,"KPL-1, compound A × partner",0.36
same,HSA volume,"KPL-1, compound A × partner",−0.31
same,Synergy Score,"KPL-1, compound A × partner",1.43
CS(=O)(=O)CCNCc1ccc(-c2ccc3ncnc(Nc4ccc(OCc5cccc(F)c5)c(Cl)c4)c3c2)o1 [Lapatinib Ditosylate],Best CI,[1],0.44
same,Best CI,[2],0.18
same,Best CI,"BT-474 cell line, compound A × partner",0.02
same,Best CI,"BT-549 cell line, compound A × partner",0.45
same,Best CI,[3],1.14
same,Best CI,[4],0.58
same,Best CI,[5],1.36
same,Best CI,[6],0.38
same,Best CI,[7],0.90
same,Best CI,[8],0.65
same,Best CI,[9],0.77
same,Best CI,"HCC38, compound A × partner",0.87
same,Best CI,"HCC70, compound A × partner",0.35
same,Best CI,"HCC1143, compound A × partner",0.54
same,Best CI,"HCC1569, compound A × partner",0.53
same,Best CI,"HCC1806, compound A × partner",0.74
same,Best CI,"HCC1937, compound A × partner",1.22
same,Best CI,"HCC1954, compound A × partner",0.07
same,Best CI,"HCC2218, compound A × partner",0.02
same,Best CI,"HDQ-P1, compound A × partner",0.87
same,Best CI,"HMC-1-8, compound A × partner",0.50
same,Best CI,"JIMT-1, compound A × partner",0.29
same,Best CI,"KPL-1, compound A × partner",0.65
same,Best CI,"MCF7 cells, Compound A × partner agent",0.34
same,Best CI,"MDA-MB-175-VII cells, Compound A × partner agent",0.32
same,Best CI,"MDA-MB-231 cells, Compound A × partner agent",0.77
same,Best CI,"MDA-MB-361 cells, Compound A × partner agent",0.87
same,Best CI,"MDA-MB-436 cells, Compound A × partner agent",0.51
same,Best CI,"MDA-MB-453 cells, Compound A × partner agent",0.45
same,Best CI,"MDA-MB-468 cells, Compound A × partner agent",0.36
same,Best CI,"SK-BR-3 cells, Compound A × partner agent",0.15
same,Best CI,"SUM159PT cells, combination of compound A with the named agent",1.37
same,Best CI,"T47D cells, combination of compound A with the named agent",0.41
same,Best CI,"ZR-75-1 cells, combination of compound A with the named agent",0.73
same,Best CI,"ZR-75-30 cells, combination of compound A with the named agent",0.31
